From article PMC5301252, “A new approach to quantification of mAb aggregates using peptide affinity probes” (Scientific Reports, 2017) come the findings set out here.

For assay [1], the system named is control non-aggregated NISTmAb. Kind of assay: Phage ELISA, binding to control NISTmAb. Particulars: phage clone displaying the peptide; 2 hours, room temperature; absorbance 450 nm; three analytical replicates. Here is the method:
(§1) In the second step, a sample of the cross-linked NISTmAb was used as bait to screen a Ph.D.−12 phage display peptide library. The bait represents a mixture of monomer and cross-linked aggregated NISTmAb; this was also the only occasion when cross-linked sample was used. Phage display panning was performed in a subtractive manner. The library was initially depleted with control non-aggregated NISTmAb using three iterative cycles. The unbound phage was then screened on cross-linked NISTmAb aggregates, again using three iterative cycles of phage binding, elution, and amplification. After these rounds of panning, the single phage plaques were randomly picked up and amplified, and phage DNA was submitted for sequencing. In parallel, the ability to bind NISTmAb aggregates was evaluated using phage enzyme-linked immunosorbent assay (ELISA) for all selected phage clones. […] Clones #1 and #4 show respectively 9-fold and 7-fold better binding toward aggregated NISTmAb, compared to their binding toward control non-aggregated NISTmAb. […]
(§2) To assess the binding ability of the selected phages toward NISTmAb aggregates, 1 × 10^10 pfu of P02-C06 phage was incubated with 50 μg of NISTmAb aggregates at room temperature for 2 hours. […] Tetramethybezidine substrate reagent (eBioscience, San Diego, CA) was subsequently added and absorbance was read at 450 nm.

The test system of assay [2] is NISTmAb aggregates generated by agitation. The experiment in a line: Phage ELISA, binding to aggregated NISTmAb versus control NISTmAb. Particulars: phage clone displaying the peptide, 2 hours, room temperature. How it is done: as §1, §2
(In an ELISA, binding on a coated surface is turned into a signal by an enzyme label.)

Regarding GNNPLHVHHDKRGGG [P02-C04], the “affinity toward non-aggregated NISTmAb, compared to other clones” value in assay [1] is on record as “lowest”. In assay [2] (aggregated vs control NISTmAb, absorbance 450 nm), the binding preference entry was “preferential binding to NISTmAb aggregates”. Also, in assay [2] (1 × 10^10 pfu, HRP anti-M13, absorbance 450 nm, three analytical replicates), the “fold better binding toward aggregated NISTmAb compared to control non-aggregated NISTmAb” value was 7 -fold.
